Patent US10077261B2, “Imidazolin-5-one derivative useful as FASN inhibitors for the treatment of cancer” (Janssen Pharmaceutica NV, priority 2012, dated 2018)

Key:
[1] = system: LNCaP-Vancouver prostate cells; assay: In vitro LNCaP Vancouver prostate cell proliferation assay in lipid reduced medium; format: cell-based; settings: read-out: pIC50 LNCaP_Vancouver prostate cell (converted)
A2780 ovarian cells [2] = assay: A2780 ovarian cell proliferation assay in lipid reduced medium, without palmitate (MTT); format: cell-based; settings: Homo sapiens, A2780, 96 h; read-out: pIC50 A2780 Ovarian Cell, Without Palmitate (converted)
[3] = molecular target: T1, hFASN enzyme (full length) (Homo sapiens, UniProt P49327); assay: Fatty Acid Synthase (FASN) inhibition scintillation proximity assay; format: biochemical; settings: for inhibition at 10 µM: read-out: Human FASN % inhibition @ 10 μM, 10 μM test compound
T1 construct: 10 μL hFASN enzyme (full length, 300 ng, purified in house); made in house
T1 sequence (P49327 whole entry): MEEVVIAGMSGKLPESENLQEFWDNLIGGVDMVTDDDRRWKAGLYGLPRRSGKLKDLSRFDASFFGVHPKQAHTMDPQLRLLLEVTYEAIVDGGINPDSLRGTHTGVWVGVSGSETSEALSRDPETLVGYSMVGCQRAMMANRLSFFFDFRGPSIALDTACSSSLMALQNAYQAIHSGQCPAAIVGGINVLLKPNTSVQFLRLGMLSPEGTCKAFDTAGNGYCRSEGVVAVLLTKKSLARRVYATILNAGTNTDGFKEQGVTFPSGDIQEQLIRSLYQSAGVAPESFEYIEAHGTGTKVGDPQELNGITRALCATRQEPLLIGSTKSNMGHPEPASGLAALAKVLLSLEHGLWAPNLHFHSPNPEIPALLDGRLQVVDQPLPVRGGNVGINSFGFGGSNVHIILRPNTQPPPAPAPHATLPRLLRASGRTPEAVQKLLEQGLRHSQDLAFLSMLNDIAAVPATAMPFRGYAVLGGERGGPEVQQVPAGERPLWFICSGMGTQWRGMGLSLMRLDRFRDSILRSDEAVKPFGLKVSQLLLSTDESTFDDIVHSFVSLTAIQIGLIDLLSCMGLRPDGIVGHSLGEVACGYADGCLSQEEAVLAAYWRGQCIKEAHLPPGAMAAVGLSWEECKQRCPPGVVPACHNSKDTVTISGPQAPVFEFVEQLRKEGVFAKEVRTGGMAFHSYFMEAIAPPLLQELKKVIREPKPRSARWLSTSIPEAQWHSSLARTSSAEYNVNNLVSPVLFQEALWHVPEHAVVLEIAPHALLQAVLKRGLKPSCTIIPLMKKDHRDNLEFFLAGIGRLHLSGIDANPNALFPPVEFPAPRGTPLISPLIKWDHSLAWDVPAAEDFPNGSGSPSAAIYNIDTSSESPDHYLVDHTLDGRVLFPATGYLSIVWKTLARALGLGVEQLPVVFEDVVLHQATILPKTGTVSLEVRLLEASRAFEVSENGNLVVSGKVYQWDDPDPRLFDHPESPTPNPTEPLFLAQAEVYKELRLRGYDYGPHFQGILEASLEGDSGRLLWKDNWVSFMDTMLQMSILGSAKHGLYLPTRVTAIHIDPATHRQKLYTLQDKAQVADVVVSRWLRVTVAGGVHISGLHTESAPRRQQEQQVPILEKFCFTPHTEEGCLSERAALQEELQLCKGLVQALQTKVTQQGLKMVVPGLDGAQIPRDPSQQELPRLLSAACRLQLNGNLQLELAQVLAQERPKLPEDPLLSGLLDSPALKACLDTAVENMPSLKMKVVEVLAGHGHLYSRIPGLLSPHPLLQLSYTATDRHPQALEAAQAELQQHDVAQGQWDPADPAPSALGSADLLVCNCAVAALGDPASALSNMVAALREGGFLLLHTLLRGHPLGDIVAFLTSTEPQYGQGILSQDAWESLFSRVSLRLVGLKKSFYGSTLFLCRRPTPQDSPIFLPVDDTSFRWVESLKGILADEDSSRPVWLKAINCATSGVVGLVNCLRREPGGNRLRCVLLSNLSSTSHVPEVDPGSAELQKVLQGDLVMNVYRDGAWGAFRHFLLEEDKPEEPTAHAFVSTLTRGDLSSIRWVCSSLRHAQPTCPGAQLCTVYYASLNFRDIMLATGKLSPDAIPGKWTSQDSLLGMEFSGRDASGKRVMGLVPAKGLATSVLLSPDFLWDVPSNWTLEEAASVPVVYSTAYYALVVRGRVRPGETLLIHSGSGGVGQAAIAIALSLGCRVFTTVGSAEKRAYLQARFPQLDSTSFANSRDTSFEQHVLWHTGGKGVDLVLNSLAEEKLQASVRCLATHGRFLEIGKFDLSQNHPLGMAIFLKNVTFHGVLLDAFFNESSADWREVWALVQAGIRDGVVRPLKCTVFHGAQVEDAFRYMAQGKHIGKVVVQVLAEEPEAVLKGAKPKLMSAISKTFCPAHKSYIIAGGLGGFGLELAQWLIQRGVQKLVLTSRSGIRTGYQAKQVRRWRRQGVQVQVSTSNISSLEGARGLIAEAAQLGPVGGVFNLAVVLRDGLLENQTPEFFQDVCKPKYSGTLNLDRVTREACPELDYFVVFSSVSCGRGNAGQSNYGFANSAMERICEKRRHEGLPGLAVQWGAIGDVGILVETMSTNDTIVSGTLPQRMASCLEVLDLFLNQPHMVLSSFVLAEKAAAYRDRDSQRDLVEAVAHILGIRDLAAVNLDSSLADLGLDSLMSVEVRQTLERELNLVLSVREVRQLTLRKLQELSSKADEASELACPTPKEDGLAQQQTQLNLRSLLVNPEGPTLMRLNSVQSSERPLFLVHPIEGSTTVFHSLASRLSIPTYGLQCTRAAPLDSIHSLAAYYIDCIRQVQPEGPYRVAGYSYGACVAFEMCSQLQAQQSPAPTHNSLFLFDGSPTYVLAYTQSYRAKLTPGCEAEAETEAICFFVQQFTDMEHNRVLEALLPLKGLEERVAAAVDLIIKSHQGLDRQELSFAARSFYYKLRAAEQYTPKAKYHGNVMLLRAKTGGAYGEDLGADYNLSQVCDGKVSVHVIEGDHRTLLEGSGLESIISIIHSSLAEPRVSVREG
How it was run: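 Compounds at 0.01–30 μM were mixed with 300 ng purified full-length enzyme in 100 mM KH2PO4 pH 7.5, 1 mM DTT. Substrates ³H-acetyl-CoA and malonyl-CoA were then converted, and bead addition stopped the reaction. Signal was normalised to low and high plate controls and fitted by 4-parameter nonlinear regression.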

[4] = system: PC-3M-Luc-C6 prostate cells; assay: In vitro PC-3M-Luc-C6 prostate cell proliferation assay in lipid reduced medium; format: cell-based; settings: 96 h, read-out: pIC50 PC-3M-Luc-C6 prostate cell (converted)
Description: PC-3M-Luc-C6 prostate cells were obtained from Xenogen Corporation. Cells were maintained in MEM supplemented with 10% Fetal Calf Serum (FCS, Hyclone), 2 mM glutamine, 1 mM sodium pyruvate, 1% BME vitamins (available from for example, Sigma Aldrich), 0.1 mM non Essential Amino Acid and 50 μg/ml Gentamicin. The cells were passaged twice a week.
The next day 10 μl test compound/DMSO diluted in medium was added (3E-5M, 1E-5M, 3E-6M, 1E-6M, 3E-7M, 1E-7M, 3E-8M, 1E-8M final concentration). Compounds were tested in duplicate. After 96 h incubation at 37° C., 5% CO2 25 μl ATP-glow mix was added. The plate was incubated for 30 min at 37° C. and luminescence was measured with the Envision.
Analysis: Determination of pIC50 Values
pIC50 values were calculated as follows.
where mLC and mHC are the means of the low control wells and high control wells on the plate, after manual exclusion of outliers. The relation between the % Controlmin values and concentration was fitted to a 4-parameter logistic curve using a non-linear least squares regression method to determine the pIC50 value. Outlying data points were excluded manually to get a correct fit. The pIC50 corresponds to −log 10(IC50), if the IC50 is expressed in molar units (http://www.ncbi.nlm.nih.gov/books/NBK91994). The IC50 parameter was always determined by non-linear regression, but one or more of the other parameters may have been held fixed on a relevant input value, such as 0 for the bottom values.

A2780 ovarian cells [5] = assay: A2780 ovarian cell proliferation assay in lipid reduced medium, with palmitate (MTT); format: cell-based; settings: Homo sapiens, A2780, 96 h; read-out: pIC50 A2780 Ovarian Cell, With Palmitate (converted)
How it was run: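 Seeded cells were switched next day to lipid-reduced serum, exposed to compound and 25 μM palmitate complexed with fatty-acid-free BSA, and incubated 96 h. Proliferation was then determined by MTT absorbance at 544 nm, with a best-fit curve of signal against concentration.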

Row | IC50 [1] | IC50 (A2780 ovarian cells [2]) | inhibition at 10 µM [3] | IC50 [4] | IC50 (A2780 ovarian cells [5]) | IC50 ([3]; read-out: Human FASN pIC50 (converted)) | SMILES
1 | 407 nM | ~40.7 nM | 103% | 51.3 nM | > 10 µM |  | Cn1ncc2cc(-c3ccc(C4=NC5(CC5)C(=O)N4C[C@@H]4CCN(C(=O)C5CCO5)C4)cc3)ccc21 (stereo partly drawn) [compound 204, 5-(4-(1-methyl-1H-indazol-5-yl)phenyl)-6-(((3R)-1-(oxetane-2-carbonyl)pyrrolidin-3-yl)methyl)-4,6-diazaspiro[2.4]hept-4-en-7-one]
2 | 513 nM | 60.3 nM | 101% | ~67.6 nM | > 10 µM |  | Cc1cc(-c2ccc3c(cnn3C)c2)ccc1C1=NC2(CC2)C(=O)N1CC1CN(C(=O)C2(C)CC2)C1 [compound 207, 5-(2-methyl-4-(1-methyl-1H-indazol-5-yl)phenyl)-6-((1-(1-methylcyclopropanecarbonyl)azetidin-3-yl)methyl)-4,6-diazaspiro[2.4]hept-4-en-7-one]
3 | 240 nM | ~20 nM | 104% | 60.3 nM | 3.31 µM | 53.7 nM | Cc1cc(-c2ccc3cc(F)ccc3c2)ccc1C1=NC2(CC2)C(=O)N1CC1CN(C(=O)C2CCO2)C1 (stereo not drawn) [compound 223, 5-(4-(6-fluoronaphthalen-2-yl)-2-methylphenyl)-6-((1-(oxetan-2-carbonyl)azetidin-3-yl)methyl)-4,6-diazaspiro[2.4]hept-4-en-7-one]
4 | 759 nM | 18.2 nM | 103% | 97.7 nM | > 10 µM |  | O=C(C1CC1)N1CC(CN2C(=O)C3(CC3)N=C2c2ccc(-c3ccc4cc(F)ccc4n3)cc2F)C1 [compound 228, 6-((1-(cyclopropanecarbonyl)azetidin-3-yl)methyl)-5-(2-fluoro-4-(6-fluoroquinolin-2-yl)phenyl)-4,6-diazaspiro[2.4]hept-4-en-7-one]
5 | 813 nM | 60.3 nM | 96% | 135 nM | > 10 µM |  | Cc1cc(C2=NC3(CC3)C(=O)N2C[C@@H]2CCN(C(=O)C3CC3)C2)ccc1-c1ccc2cc[nH]c2c1 [compound 239, (R)-5-(4-(1H-indol-6-yl)-3-methylphenyl)-6-((1-(cyclopropanecarbonyl)pyrrolidin-3-yl)methyl)-4,6-diazaspiro[2.4]hept-4-en-7-one]
6 | 2040 nM | ~1860 nM | 100% | ~871 nM | > 10 µM |  | Cc1cc2cc(-c3ccc(C4=NC5(CC5)C(=O)N4C[C@@H]4CCN(C(=O)C5CC5)C4)cc3)ccc2o1 [compound 294, (R)-6-((1-(cyclopropanecarbonyl)pyrrolidin-3-yl)methyl)-5-(4-(2-methylbenzofuran-5-yl)phenyl)-4,6-diazaspiro[2.4]hept-4-en-7-one]
7 | 646 nM | 25.1 nM |  | ~30.2 nM | > 10 µM |  | O=C(C1CC1)N1CC[C@@H](CN2C(=O)C3(CC3)N=C2c2ccc(-c3ccc4[nH]ncc4c3)cc2)C1 [compound 297, (R)-5-(4-(1H-indazol-5-yl)phenyl)-6-((1-(cyclopropanecarbonyl)pyrrolidin-3-yl)methyl)-4,6-diazaspiro[2.4]hept-4-en-7-one]
8 | 437 nM | 13.2 nM |  | 16.6 nM | > 10 µM |  | O=C(C1CC1)N1CC[C@@H](CN2C(=O)C3(CC3)N=C2c2ccc(-c3cccc4[nH]ncc34)cc2)C1 [compound 302]
9 | 31.6 nM | 6.17 nM |  | 7.41 nM | > 10 µM |  | O=C(C1CC1)N1CC[C@@H](CN2C(=O)C3(CC3)N=C2c2ccc(-c3ccc4cccnc4c3)cc2)C1 [compound 309, (R)-6-((1-(cyclopropanecarbonyl)pyrrolidin-3-yl)methyl)-5-(4-(quinolin-7-yl)phenyl)-4,6-diazaspiro[2.4]hept-4-en-7-one]
10 | 2190 nM | 2090 nM |  | 1170 nM | > 10 µM |  | O=C(C1CC1)N1CC[C@H](CN2C(=O)C3(CC3)N=C2c2ccc(-c3ccc4occc4c3)cc2)C1 [compound 409, 5-[4-(1-Benzofuran-5-yl)phenyl]-6-{[(3S)-1-(cyclopropylcarbonyl)pyrrolidin-3-yl]methyl}-4,6-diazaspiro[2.4]hept-4-en-7-one]
11 | 977 nM | 537 nM |  | 447 nM | > 10 µM |  | Cn1ncc2cc(-c3ccc(C4=NC5(CC5)C(=O)N4C[C@H]4CCN(C(=O)C5CC5)C4)cc3)ccc21 [compound 410, 6-{[(3S)-1-(Cyclopropylcarbonyl)pyrrolidin-3-yl]methyl}-5-[4-(1-methyl-1H-indazol-5-yl)phenyl]-4,6-diazaspiro[2.4]hept-4-en-7-one]
12 | 2340 nM | ~617 nM |  | 794 nM | > 10 µM |  | Cc1cc(C2=NC3(CC3)C(=O)N2C[C@@H]2CCN(C(=O)C3CC3)C2)ccc1-c1ccc2c(cnn2C)c1 [compound 450, 6-{[(3R)-1-(Cyclopropylcarbonyl)pyrrolidin-3-yl]methyl}-5-[3-methyl-4-(1-methyl-1H-indazol-5-yl)phenyl]-4,6-diazaspiro[2.4]hept-4-en-7-one]
13 | 2140 nM | ~891 nM |  | ~692 nM | > 10 µM |  | O=C(C1CC1)N1CC[C@@H](CN2C(=O)C3(CC3)N=C2c2ccc(-c3ccc4ncccc4c3)cc2)C1 [compound 455, 6-{[(3R)-1-(Cyclopropylcarbonyl)pyrrolidin-3-yl]methyl}-5-(4-quinolin-6-ylphenyl)-4,6-diazaspiro[2.4]hept-4-en-7-one]
14 | 288 nM | 74.1 nM | 97% | 58.9 nM | > 10 µM |  | Nc1nccc2cc(-c3ccc(C4=NC5(CC5)C(=O)N4C[C@@H]4CCN(C(=O)C5CC5)C4)cc3)ccc12 [compound 469, 5-[4-(1-Aminoisoquinolin-6-yl)phenyl]-6-{[(3R)-1-(cyclopropylcarbonyl)pyrrolidin-3-yl]methyl}-4,6-diazaspiro[2.4]hept-4-en-7-one]
15 | 1000 nM | 200 nM |  | 708 nM | > 10 µM |  | O=C(C1CC1)N1CC[C@@H](CN2C(=O)C3(CC3)N=C2c2ccc(-c3cnc4ccccc4c3)cc2)C1 [compound 474, 6-{[(3R)-1-(Cyclopropylcarbonyl)pyrrolidin-3-yl]methyl}-5-(4-quinolin-3-ylphenyl)-4,6-diazaspiro[2.4]hept-4-en-7-one]
16 | 708 nM | 148 nM | 97% | ~251 nM | > 10 µM |  | Cc1cc(-c2ccc3c(cnn3C)c2)ccc1C1=NC2(CC2)C(=O)N1CC1CN(C(=O)C2CCC2)C1 [compound 489]
17 | 1000 nM | 72.4 nM | 100% | ~178 nM | > 10 µM |  | Cc1c(-c2ccc(C3=NC4(CC4)C(=O)N3CC3CN(C(=O)C4CC4)C3)cc2)ccc2c1cnn2C [compound 491, 6-{[1-(Cyclopropylcarbonyl)azetidin-3-yl]methyl}-5-[4-(1,4-dimethyl-1H-indazol-5-yl)phenyl]-4,6-diazaspiro[2.4]hept-4-en-7-one]
18 | 2340 nM | ~398 nM |  | 501 nM | > 10 µM |  | O=C(C1CC1)N1CC[C@@H](CN2C(=O)C3(CC3)N=C2c2ccc(-c3n[nH]c4ccccc34)cc2)C1 [compound 528, 6-{[(3R)-1-(Cyclopropylcarbonyl)pyrrolidin-3-yl]methyl}-5-[4-(1H-indazol-3-yl)phenyl]-4,6-diazaspiro[2.4]hept-4-en-7-one]
19 | 912 nM | 145 nM | 102% | 105 nM | 5.5 µM |  | Cc1cc(-c2cccc3c2cnn3C)ccc1C1=NC2(CC2)C(=O)N1CC1CN(C(=O)C2(C)CC2)C1 [compound 599, 6-({1-[(1-Methylcyclopropyl)carbonyl]azetidin-3-yl}methyl)-5-[2-methyl-4-(1-methyl-1H-indazol-4-yl)phenyl]-4,6-diazaspiro[2.4]hept-4-en-7-one]
